Results as given in patent US7208612B2 (priority 2001, dated 2007).

What was measured:
[1] = test system: V. harveyi LuxP+, LuxS+ reporter strain (AI-2 detection system); assay: Bioluminescence (light production) bioassay in LuxP+, LuxS+ reporter strain that produces its own AI-2; assay type: cell-based, Vibrio harveyi
[2] = test system: V. harveyi LuxS- strain; assay type: cell-based, Vibrio harveyi

With `OB(O)O` [Boric acid] the “induction of light production” value ([1]; addition of 1 mM boric acid during delay period) was “substantial induction”, the “induction of light production (fold)” value ([1]; boric acid concentrations as low as 10 μM) was 10 fold and the effect on bioluminescence ([2]; LuxS- strain) was “no effect”.
`C[C@@H](O)CC(=O)N[C@H]1CCOC1=O` [AI-1] was tested, and the response to autoinducer ([2]; latter strains (incl. LuxS-), same experimental conditions) was “wild-type responses”.
